Reference: ChEMBL document CHEMBL1909046, “DrugMatrix in vitro pharmacology data”

Columns and labels:
[1] = biological target: T1, Alpha-2A adrenergic receptor (Homo sapiens, UniProt P08913); assay type: cell membranes, Sf9, Membrane; settings: sf9; further: in other assays of this panel Not Active means under 50% inhibition at 10 µM
T1 sequence (P08913 whole entry): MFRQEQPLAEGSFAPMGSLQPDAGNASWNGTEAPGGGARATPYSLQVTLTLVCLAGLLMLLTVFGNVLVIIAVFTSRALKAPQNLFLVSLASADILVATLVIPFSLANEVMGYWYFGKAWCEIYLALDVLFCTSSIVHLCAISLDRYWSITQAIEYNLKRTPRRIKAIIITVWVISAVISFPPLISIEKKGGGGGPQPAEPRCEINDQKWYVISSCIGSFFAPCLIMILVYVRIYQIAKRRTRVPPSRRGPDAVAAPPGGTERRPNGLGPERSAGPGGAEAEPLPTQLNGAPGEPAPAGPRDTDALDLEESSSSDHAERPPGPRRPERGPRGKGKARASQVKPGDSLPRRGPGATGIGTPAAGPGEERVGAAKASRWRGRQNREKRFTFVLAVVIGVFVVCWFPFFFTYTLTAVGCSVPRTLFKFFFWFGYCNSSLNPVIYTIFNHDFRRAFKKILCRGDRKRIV

[2] = biological target: T2, C-X-C chemokine receptor type 1 (Homo sapiens, UniProt P25024); further: in other assays of this panel Not Active means under 50% inhibition at 10 µM
T2 sequence (P25024 whole entry): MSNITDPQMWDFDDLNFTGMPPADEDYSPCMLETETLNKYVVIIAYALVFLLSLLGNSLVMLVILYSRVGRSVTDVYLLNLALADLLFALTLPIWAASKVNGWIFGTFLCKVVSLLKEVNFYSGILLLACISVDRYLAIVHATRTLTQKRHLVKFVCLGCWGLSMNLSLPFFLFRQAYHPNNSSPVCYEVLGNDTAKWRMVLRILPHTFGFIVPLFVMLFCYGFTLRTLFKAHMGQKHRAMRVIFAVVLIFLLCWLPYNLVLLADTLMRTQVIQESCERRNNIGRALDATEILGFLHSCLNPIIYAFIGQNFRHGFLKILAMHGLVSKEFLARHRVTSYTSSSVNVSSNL

Cytochrome P450 2C9 = Cytochrome P450 2C9 (Homo sapiens, UniProt P11712); settings: bti-tn-5b1-4; further: in other assays of this panel Not Active means under 50% inhibition at 10 µM
Melanocortin receptor 5 = Melanocortin receptor 5 (Homo sapiens, UniProt P33032); assay type: cell membranes, HEK293, Membrane; settings: hek293; further: in other assays of this panel Not Active means under 50% inhibition at 10 µM
[3] = biological target: C-C chemokine receptor type 5 (Homo sapiens, UniProt P51681); assay type: cell membranes, Membrane; settings: hek293; further: in other assays of this panel Not Active means under 50% inhibition at 10 µM
[4] = biological target: Tyrosine-protein kinase Lck (Homo sapiens, UniProt P06239); test: DRUGMATRIX: Protein Tyrosine Kinase, LCK enzyme inhibition (substrate: Poly(Glu:Tyr)); assay type: cell-based, Insect cells; settings: insect cells; Not Active = under 50% inhibition at 10 µM
[5] = DRUGMATRIX: Calcium Channel Type L, Phenylalkylamine radioligand binding (ligand: [3H] (-)-Desmethoxyverapamil (D-888)); assay type: cell membranes, Rattus norvegicus, Wistar, Brain, Membrane; settings: Not Active = under 50% inhibition at 10 µM
Melanocortin receptor 3 = Melanocortin receptor 3 (Homo sapiens, UniProt P41968); assay type: cell membranes, Membrane; settings: hek293; further: in other assays of this panel Not Active means under 50% inhibition at 10 µM
[6] = biological target: Protein phosphatase 3 catalytic subunit alpha (Homo sapiens, UniProt Q08209); parameters: species or system Escherichia coli
[7] = DRUGMATRIX: Phorbol Ester radioligand binding (ligand: [3H] PDBu); assay type: cell membranes, Mus musculus, ICR, Brain, Membrane; settings: Not Active = under 50% inhibition at 10 µM
[8] = DRUGMATRIX: Serotonin (5-Hydroxytryptamine) 5-HT3 radioligand binding (ligand: [3H] GR-65630); assay type: cell membranes, Membrane; settings: hek293; Not Active = under 50% inhibition at 10 µM
[9] = biological target: 5-hydroxytryptamine receptor 6 (Homo sapiens, UniProt P50406); assay type: cell membranes, HeLa, Membrane; settings: hela; further: in other assays of this panel Not Active means under 50% inhibition at 10 µM
[10] = biological target: T3, Polyunsaturated fatty acid lipoxygenase ALOX15 (Oryctolagus cuniculus, UniProt P12530); test: biochemical; assay type: tissue-based, Reticulocytes; settings: reticulocytes
T3 sequence (P12530 whole entry): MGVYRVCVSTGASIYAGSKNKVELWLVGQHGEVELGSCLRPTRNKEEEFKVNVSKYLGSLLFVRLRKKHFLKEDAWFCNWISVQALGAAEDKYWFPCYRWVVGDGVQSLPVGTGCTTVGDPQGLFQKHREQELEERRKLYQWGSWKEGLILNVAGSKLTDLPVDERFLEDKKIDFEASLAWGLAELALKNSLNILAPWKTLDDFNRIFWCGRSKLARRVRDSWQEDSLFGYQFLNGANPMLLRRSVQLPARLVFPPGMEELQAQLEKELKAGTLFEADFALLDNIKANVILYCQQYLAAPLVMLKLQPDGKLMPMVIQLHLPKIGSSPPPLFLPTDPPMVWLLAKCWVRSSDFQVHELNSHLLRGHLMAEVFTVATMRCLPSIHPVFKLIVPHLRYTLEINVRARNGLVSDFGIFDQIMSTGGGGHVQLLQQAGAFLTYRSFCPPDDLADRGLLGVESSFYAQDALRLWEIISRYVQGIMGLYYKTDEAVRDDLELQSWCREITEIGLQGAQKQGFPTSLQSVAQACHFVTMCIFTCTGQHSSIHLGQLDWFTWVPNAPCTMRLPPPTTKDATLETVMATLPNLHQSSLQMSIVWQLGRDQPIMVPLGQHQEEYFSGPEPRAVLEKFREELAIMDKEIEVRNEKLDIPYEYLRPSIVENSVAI

Chain of Tyrosine-protein kinase Lck (P06239 whole entry): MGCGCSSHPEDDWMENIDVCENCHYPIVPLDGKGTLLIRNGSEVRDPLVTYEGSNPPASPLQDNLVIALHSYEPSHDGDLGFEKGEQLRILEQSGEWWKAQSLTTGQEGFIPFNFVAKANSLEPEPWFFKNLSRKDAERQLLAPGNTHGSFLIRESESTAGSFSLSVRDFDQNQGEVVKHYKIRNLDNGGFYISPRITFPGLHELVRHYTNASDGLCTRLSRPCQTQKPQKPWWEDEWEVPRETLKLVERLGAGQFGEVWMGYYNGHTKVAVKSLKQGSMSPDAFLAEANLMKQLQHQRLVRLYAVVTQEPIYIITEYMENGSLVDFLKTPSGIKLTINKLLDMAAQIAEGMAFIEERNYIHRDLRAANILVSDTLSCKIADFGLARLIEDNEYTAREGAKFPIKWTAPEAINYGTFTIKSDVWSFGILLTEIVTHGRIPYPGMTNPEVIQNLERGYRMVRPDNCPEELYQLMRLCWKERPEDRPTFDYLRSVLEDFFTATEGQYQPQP
Chain of Melanocortin receptor 5 (P33032 whole entry): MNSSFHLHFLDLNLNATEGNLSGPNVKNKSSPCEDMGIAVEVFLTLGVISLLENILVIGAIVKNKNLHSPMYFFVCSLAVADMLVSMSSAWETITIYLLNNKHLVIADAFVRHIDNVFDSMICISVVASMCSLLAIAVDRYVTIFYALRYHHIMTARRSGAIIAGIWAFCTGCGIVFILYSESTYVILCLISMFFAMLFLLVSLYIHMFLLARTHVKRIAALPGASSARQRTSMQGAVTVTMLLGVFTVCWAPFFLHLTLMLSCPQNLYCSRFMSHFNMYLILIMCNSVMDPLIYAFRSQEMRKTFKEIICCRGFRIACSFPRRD
Chain of C-C chemokine receptor type 5 (P51681 whole entry): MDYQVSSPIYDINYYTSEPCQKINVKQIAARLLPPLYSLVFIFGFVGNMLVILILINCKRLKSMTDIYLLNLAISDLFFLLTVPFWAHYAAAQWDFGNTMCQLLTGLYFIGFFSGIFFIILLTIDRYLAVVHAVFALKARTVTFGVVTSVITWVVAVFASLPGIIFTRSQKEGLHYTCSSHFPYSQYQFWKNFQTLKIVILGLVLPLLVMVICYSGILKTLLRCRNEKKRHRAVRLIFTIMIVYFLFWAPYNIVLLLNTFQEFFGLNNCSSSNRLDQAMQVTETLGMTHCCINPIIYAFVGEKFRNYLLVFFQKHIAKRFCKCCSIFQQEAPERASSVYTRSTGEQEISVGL
Chain of Melanocortin receptor 3 (P41968 whole entry): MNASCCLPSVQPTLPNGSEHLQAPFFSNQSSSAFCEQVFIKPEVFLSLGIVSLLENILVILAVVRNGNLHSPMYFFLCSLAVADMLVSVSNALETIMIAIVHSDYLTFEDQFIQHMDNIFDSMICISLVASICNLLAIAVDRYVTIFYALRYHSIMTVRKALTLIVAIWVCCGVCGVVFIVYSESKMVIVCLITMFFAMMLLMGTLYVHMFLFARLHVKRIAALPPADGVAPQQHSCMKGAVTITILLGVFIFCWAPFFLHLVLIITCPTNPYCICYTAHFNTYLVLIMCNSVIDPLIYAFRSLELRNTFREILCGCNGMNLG
Chain of Cytochrome P450 2C9 (P11712 whole entry): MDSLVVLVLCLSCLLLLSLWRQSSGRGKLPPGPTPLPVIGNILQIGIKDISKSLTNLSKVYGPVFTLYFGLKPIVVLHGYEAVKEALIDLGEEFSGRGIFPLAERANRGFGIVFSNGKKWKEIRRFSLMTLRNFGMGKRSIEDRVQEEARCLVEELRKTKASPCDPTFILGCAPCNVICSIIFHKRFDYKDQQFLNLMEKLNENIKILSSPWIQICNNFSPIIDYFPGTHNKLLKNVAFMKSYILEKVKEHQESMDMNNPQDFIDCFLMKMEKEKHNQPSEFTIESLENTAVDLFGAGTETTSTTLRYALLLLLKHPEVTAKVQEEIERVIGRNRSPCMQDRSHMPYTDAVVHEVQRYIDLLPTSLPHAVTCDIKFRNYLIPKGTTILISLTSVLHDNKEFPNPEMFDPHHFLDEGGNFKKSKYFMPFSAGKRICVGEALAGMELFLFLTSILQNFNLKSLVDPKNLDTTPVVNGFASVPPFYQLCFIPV
Chain of 5-hydroxytryptamine receptor 6 (P50406 whole entry): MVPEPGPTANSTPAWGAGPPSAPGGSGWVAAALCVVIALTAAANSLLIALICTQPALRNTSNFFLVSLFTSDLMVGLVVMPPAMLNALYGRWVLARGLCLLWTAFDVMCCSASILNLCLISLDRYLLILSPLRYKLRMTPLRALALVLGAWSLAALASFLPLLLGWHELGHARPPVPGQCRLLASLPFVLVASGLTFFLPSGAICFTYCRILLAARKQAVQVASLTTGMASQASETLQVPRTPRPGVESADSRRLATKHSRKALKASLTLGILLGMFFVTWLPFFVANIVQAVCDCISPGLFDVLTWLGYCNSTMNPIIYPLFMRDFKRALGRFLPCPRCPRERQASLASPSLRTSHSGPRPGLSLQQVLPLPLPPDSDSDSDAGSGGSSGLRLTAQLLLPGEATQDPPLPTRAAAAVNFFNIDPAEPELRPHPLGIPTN

COc1c(N2CCNC(C)C2)c(F)cc2c(=O)c(C(=O)O)cn(C3CC3)c12 (centres undefined) [GATIFLOXACIN]
Not Active: IC50 [1] | IC50 [2] | IC50 (Cytochrome P450 2C9) | Ki (Cytochrome P450 2C9) | IC50 (Melanocortin receptor 5) | IC50 [3] | IC50 [4] | IC50 [5] | Ki [5] | IC50 (Melanocortin receptor 3) | IC50 [6] | IC50 [7] | Ki [7] | IC50 [8] | Ki [8] | IC50 [9] | IC50 [10]

CC1(C)[C@@H](O[C@H]2O[C@H](C(=O)O)[C@@H](O)[C@H](O)[C@H]2O[C@@H]2O[C@H](C(=O)O)[C@@H](O)[C@H](O)[C@H]2O)CC[C@]2(C)[C@H]3C(=O)C=C4[C@@H]5C[C@@](C)(C(=O)O)CC[C@]5(C)CC[C@@]4(C)[C@]3(C)CC[C@@H]12 [GLYCYRRHIZIN]
Not Active: IC50 [1] | IC50 [2] | IC50 (Cytochrome P450 2C9) | Ki (Cytochrome P450 2C9) | IC50 (Melanocortin receptor 5) | IC50 [3] | IC50 [4] | IC50 [5] | Ki [5] | IC50 (Melanocortin receptor 3) | IC50 [6] | IC50 [7] | Ki [7] | IC50 [8] | Ki [8] | IC50 [9] | IC50 [10]

C/C=C1\[C@H]2C=C(C)C[C@]1(N)c1ccc(=O)[nH]c1C2 [HUPERZINE A]
Not Active: IC50 [1] | IC50 [2] | IC50 (Cytochrome P450 2C9) | Ki (Cytochrome P450 2C9) | IC50 (Melanocortin receptor 5) | IC50 [3] | IC50 [4] | IC50 [5] | Ki [5] | IC50 (Melanocortin receptor 3) | IC50 [6] | IC50 [7] | Ki [7] | IC50 [8] | Ki [8] | IC50 [9] | IC50 [10]

CC1COc2c(N3CCN(C)CC3)c(F)cc3c(=O)c(C(=O)O)cn1c23 (centres undefined) [OFLOXACIN]
Not Active: IC50 [1] | IC50 [2] | IC50 (Cytochrome P450 2C9) | Ki (Cytochrome P450 2C9) | IC50 (Melanocortin receptor 5) | IC50 [3] | IC50 [4] | IC50 [5] | Ki [5] | IC50 (Melanocortin receptor 3) | IC50 [6] | IC50 [7] | Ki [7] | IC50 [8] | Ki [8] | IC50 [9] | IC50 [10]

CC(C)(S)[C@@H](N)C(=O)O [PENICILLAMINE]
Not Active: IC50 [1] | IC50 [2] | IC50 (Cytochrome P450 2C9) | Ki (Cytochrome P450 2C9) | IC50 (Melanocortin receptor 5) | IC50 [3] | IC50 [4] | IC50 [5] | Ki [5] | IC50 (Melanocortin receptor 3) | IC50 [6] | IC50 [7] | Ki [7] | IC50 [8] | Ki [8] | IC50 [9] | IC50 [10]

O=C1NC(=O)C(c2ccccc2)(c2ccccc2)N1 [PHENYTOIN]
Not Active: IC50 [1] | IC50 [2] | IC50 (Cytochrome P450 2C9) | Ki (Cytochrome P450 2C9) | IC50 (Melanocortin receptor 5) | IC50 [3] | IC50 [4] | IC50 [5] | Ki [5] | IC50 (Melanocortin receptor 3) | IC50 [6] | IC50 [7] | Ki [7] | IC50 [8] | Ki [8] | IC50 [9] | IC50 [10]

CCC1(c2ccccc2)C(=O)NCNC1=O [PRIMIDONE]
Not Active: IC50 [1] | IC50 [2] | IC50 (Cytochrome P450 2C9) | Ki (Cytochrome P450 2C9) | IC50 (Melanocortin receptor 5) | IC50 [3] | IC50 [4] | IC50 [5] | Ki [5] | IC50 (Melanocortin receptor 3) | IC50 [6] | IC50 [7] | Ki [7] | IC50 [8] | Ki [8] | IC50 [9] | IC50 [10]
